Data published in publication PMC7919492, “Synthesis of Rottlerone Analogues and Evaluation of Their α-Glucosidase and DPP-4 Dual Inhibitory and Glucose Consumption-Promoting Activity” (Molecules, 2021).
“Also recorded” adds a separate entry of the source. Where two headings read alike, the source gives them in different places.

What was measured:
[1] = target: T1, α-glucosidase from baker’s yeast (Saccharomyces cerevisiae, UniProt P53341); experiment: biochemical; type: biochemical; conditions: for fold higher α-glucosidase inhibitory activity than 3: compared with compound 3; for fold higher α-glucosidase inhibitory activity than 5a: compared with compound 5a
T1 construct: purchased Sigma G5003
Method: The commercially available α-glucosidase from baker’s yeast (Sigma, G5003) was selected as the target protein while using p-nitrophenyl-α-D-glucopyranoside (pNGP, Sigma, N1377) as the substrate. […] The enzyme and substrate were dissolved in potassium phosphate buffer (0.05 M, pH 6.8). The enzymatic reaction mixture that was composed of α-glucosidase (0.04 U, 20 μL), substrate (0.5 mM, 30 μL), test compounds (20 μL), and potassium phosphate buffer (130 μL) was incubated at 37 °C for 30 min. The enzymatic activity was detected by spectrophotometer at the wavelength of 405 nm. The results are the average of three independent experiments, each being performed in duplicate.

DPP-4 = target: T2, DPP-4 (Homo sapiens, UniProt P27487); experiment: DPP-4 inhibition assay (glycyl proline p-nitroaniline substrate); type: biochemical; conditions: average of three independent experiments, each in duplicate; 37 °C, 30 min
T2 construct: purchased PROSPEC ENZ-375
Method: The enzyme and substrate were dissolved in Tris-HCl buffer (0.1 M, pH 8.0). The enzymatic reaction mixture that was composed of DPP-4 (0.01 U, 50 μL), substrate (2.2 mM, 50 μL), test compounds (10 μL), and Tris-HCl buffer (90 μL) was incubated at 37 °C for 30 min. […] The results are the average of three independent experiments, each being performed in duplicate.

α-glucosidase = target: T3, α-glucosidase (Saccharomyces cerevisiae, UniProt P53341); experiment: Kinetics of enzyme inhibition (velocity vs enzyme plots, Lineweaver-Burk); type: biochemical, baker’s yeast; conditions: for reversibility of α-glucosidase inhibition: plots of velocity versus enzyme concentration at different inhibitor concentrations
T3 construct: purchased Sigma G5003
Method: The commercially available α-glucosidase from baker’s yeast (Sigma, G5003) was selected as the target protein while using p-nitrophenyl-α-D-glucopyranoside (pNGP, Sigma, N1377) as the substrate. The compounds and acarbose were dissolved in DMSO. The enzyme and substrate were dissolved in potassium phosphate buffer (0.05 M, pH 6.8). The enzymatic reaction mixture that was composed of α-glucosidase (0.04 U, 20 μL), substrate (0.5 mM, 30 μL), test compounds (20 μL), and potassium phosphate buffer (130 μL) was incubated at 37 °C for 30 min. The enzymatic activity was detected by spectrophotometer at the wavelength of 405 nm. The results are the average of three independent experiments, each being performed in duplicate.
The kinetics of enzyme inhibition was performed with the same assays detailed above, in the presence of different concentrations of compounds 4d and 5d, substrate, and enzyme, respectively. The inhibitory kinetics of 4d and 5d on α-glucosidase was analyzed using the Lineweaver-Burk plot of the substrate concentration and velocity.

HepG2 cells = experiment: Glucose consumption assay in HepG2 cells; type: cell-based, human; conditions: 24 h
Method: Briefly, the HepG2 cells were cultured in Dulbecco’s-modified Eagle’s medium (DMEM) containing 25 mmol/L D-glucose, 10% heat-inactivated fetal bovine serum (FBS), 10 U/mL penicillin, and […] streptomycin at 37 °C, 5% CO2 atmosphere. The culture solution was replaced every other day and then passaged once for 2–3 d. The cells were seeded into 96-well plate with twenty-four wells left as blanks. After reaching 70–80% confluence, the cells were washed with PBS twice and the medium was replaced by DMEM containing 25 mmol/L D-glucose to hunger for 24 h. The cells were washed with PBS twice and the medium was replaced by RPMI-1640 containing 11.1 mmol/L glucose that was supplemented with 0.2% bovine serum albumin (BSA). To the medium was then added 1 mmol/L metformin or purified product at different concentrations, and DMSO was used as the blank control. The glucose concentration in the medium […] 24 h treatment. Glucose consumption = glucose concentrations of blank wells − glucose concentrations of plated wells. The sulforhodamine B (SRB) assay was used to adjust the glucose consumption values. The SRB assay is based on the measurement of cellular protein content. […] Bound SRB was solubilized with 150 μL Tris-base (10 mmol/L, pH 10.5) solution for OD determination at 546 nm while using a microplate reader.

[2] = average of three independent experiments, each in duplicate, 37 °C, 30 min, read-out: IC50 α-Glucosidase

T2 sequence (P27487 whole entry): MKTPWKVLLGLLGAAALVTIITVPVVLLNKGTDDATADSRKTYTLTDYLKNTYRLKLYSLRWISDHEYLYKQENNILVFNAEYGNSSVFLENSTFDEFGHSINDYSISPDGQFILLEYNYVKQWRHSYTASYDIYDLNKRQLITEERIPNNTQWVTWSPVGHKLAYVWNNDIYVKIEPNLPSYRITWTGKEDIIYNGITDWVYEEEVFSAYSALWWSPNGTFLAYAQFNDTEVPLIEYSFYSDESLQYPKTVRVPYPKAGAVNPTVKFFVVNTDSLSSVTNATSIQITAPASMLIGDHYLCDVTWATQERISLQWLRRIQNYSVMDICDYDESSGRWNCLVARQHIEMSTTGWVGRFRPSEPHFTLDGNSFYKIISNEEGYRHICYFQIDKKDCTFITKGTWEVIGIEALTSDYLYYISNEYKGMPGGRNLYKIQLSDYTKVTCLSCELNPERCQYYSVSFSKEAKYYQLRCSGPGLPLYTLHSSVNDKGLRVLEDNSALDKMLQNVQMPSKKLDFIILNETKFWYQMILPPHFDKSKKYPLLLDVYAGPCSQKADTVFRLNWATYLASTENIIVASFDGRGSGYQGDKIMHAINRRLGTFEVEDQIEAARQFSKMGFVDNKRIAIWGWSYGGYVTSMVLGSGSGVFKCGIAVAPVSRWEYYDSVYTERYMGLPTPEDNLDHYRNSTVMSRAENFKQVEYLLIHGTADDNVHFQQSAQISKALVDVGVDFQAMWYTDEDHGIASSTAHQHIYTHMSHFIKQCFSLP
T3 sequence (P53341 whole entry): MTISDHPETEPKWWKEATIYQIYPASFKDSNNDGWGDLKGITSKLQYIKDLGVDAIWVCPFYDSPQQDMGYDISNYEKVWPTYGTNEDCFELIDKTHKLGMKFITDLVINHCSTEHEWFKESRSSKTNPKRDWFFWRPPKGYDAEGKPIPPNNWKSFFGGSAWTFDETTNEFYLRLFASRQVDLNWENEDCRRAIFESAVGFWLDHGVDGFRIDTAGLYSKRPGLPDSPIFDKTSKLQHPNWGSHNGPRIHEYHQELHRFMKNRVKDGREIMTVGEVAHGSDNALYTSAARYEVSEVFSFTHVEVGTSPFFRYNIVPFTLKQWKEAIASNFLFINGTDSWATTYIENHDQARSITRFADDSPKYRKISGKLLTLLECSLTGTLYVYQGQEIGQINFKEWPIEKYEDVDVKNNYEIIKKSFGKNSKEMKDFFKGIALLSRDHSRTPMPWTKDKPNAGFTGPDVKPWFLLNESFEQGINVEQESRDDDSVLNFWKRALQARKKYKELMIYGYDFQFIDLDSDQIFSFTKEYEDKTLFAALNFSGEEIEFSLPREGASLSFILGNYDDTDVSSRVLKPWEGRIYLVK
T1 sequence (P53341 whole entry): as above

Molecule | IC50 [1, 2] | IC50 (DPP-4) | IC50 [1] | further results
CC1(C)C=Cc2c(O)c(Cc3c(O)c4c(c(C(=O)C=Cc5ccccc5)c3O)OC(C)(C)C=C4)c(O)c(C(=O)C=Cc3ccccc3)c2O1 (stereo in doubt) [Compound 3, (2Z,2’Z)-1,1’-(Methylenebis(5,7-dihydroxy-2,2-dimethyl-2H-chromene-6,8-diyl))bis (3-phenylprop-2-en-1-one)] | 5.91 ± 0.19 µM | > 50 µM | – | –
COc1ccc(C=CC(=O)c2c(O)c(Cc3c(O)c4c(c(C(=O)C=Cc5ccc(OC)cc5)c3O)OC(C)(C)C=C4)c(O)c3c2OC(C)(C)C=C3)cc1 (stereo in doubt) [Compound 4a, (2Z,2’Z)-1,1’-(Methylenebis(5,7-dihydroxy-2,2-dimethyl-2H-chromene-6,8-diyl))bis (3-(4-methoxyphenyl)prop-2-en-1-one)] | – | > 50 µM | 6.41 ± 0.33 µM | –
CC1(C)C=Cc2c(O)c(Cc3c(O)c4c(c(C(=O)C=Cc5ccc(F)cc5)c3O)OC(C)(C)C=C4)c(O)c(C(=O)C=Cc3ccc(F)cc3)c2O1 (stereo in doubt) [Compound 4b, (2Z,2’Z)-1,1’-(Methylenebis(5,7-dihydroxy-2,2-dimethyl-2H-chromene-6,8-diyl))bis (3-(4-fluoro phenyl)prop-2-en-1-one)] | – | > 50 µM | 8.71 ± 0.54 µM | –
CC1(C)C=Cc2c(O)c(Cc3c(O)c4c(c(C(=O)C=Cc5ccsc5)c3O)OC(C)(C)C=C4)c(O)c(C(=O)C=Cc3ccsc3)c2O1 (stereo in doubt) [Compound 4d, (2Z,2’Z)-1,1’-(Methylenebis(5,7-dihydroxy-2,2-dimethyl-2H-chromene-6,8-diyl))bis (3-(thiophen-3-yl)prop-2-en-1-one)] | 0.22 ± 0.07 µM | 23.59 ± 0.14 µM | – | fold higher α-glucosidase inhibitory activity than 3 [1]: 26 fold; reversibility of α-glucosidase inhibition (α-glucosidase): irreversibly; also recorded: irreversible α-glucosidase inhibitors
CC1(C)C=Cc2c(O)c(Cc3c(O)c4c(c(C(=O)C=Cc5ccc(O)cc5)c3O)OC(C)(C)C=C4)c(O)c(C(=O)C=Cc3ccc(O)cc3)c2O1 (stereo in doubt) [Compound 5a, (2Z,2’Z)-1,1’-(Methylenebis(5,7-dihydroxy-2,2-dimethyl-2H-chromene-6,8-diyl))bis (3-(4-hydroxyphenyl)prop-2-en-1-one)] | – | > 50 µM | 0.51 ± 0.19 µM | fold higher α-glucosidase inhibitory activity than 3 [1]: 10 fold
CC1(C)C=Cc2c(O)c(Cc3c(O)c4c(c(C(=O)C=Cc5ccc(O)cc5O)c3O)OC(C)(C)C=C4)c(O)c(C(=O)C=Cc3ccc(O)cc3O)c2O1 (stereo in doubt) [Compound 5b, (2Z,2’Z)-1,1’-(Methylenebis(5,7-dihydroxy-2,2-dimethyl-2H-chromene-6,8-diyl))bis (3-(2,4-dihydroxyphenyl)prop-2-en-1-one)] | – | > 50 µM | 0.24 ± 0.02 µM | fold higher α-glucosidase inhibitory activity than 5a [1]: two-fold
CC1(C)C=Cc2c(O)c(Cc3c(O)c4c(c(C(=O)C=Cc5cccc(O)c5O)c3O)OC(C)(C)C=C4)c(O)c(C(=O)C=Cc3cccc(O)c3O)c2O1 (stereo in doubt) [Compound 5c, (2Z,2’Z)-1,1’-(Methylenebis(5,7-dihydroxy-2,2-dimethyl-2H-chromene-6,8-diyl))bis (3-(2,3-dihydroxyphenyl)prop-2-en-1-one)] | – | > 50 µM | 1.07 ± 0.06 µM | –
CC1(C)C=Cc2c(O)c(Cc3c(O)c4c(c(C(=O)C=Cc5ccc(O)c(O)c5O)c3O)OC(C)(C)C=C4)c(O)c(C(=O)C=Cc3ccc(O)c(O)c3O)c2O1 (stereo in doubt) [Compound 5d, (2Z,2’Z)-1,1’-(Methylenebis(5,7-dihydroxy-2,2-dimethyl-2H-chromene-6,8-diyl))bis (3-(2,3,4-trihydroxyphenyl)prop-2-en-1-one)] | – | 26.19 ± 0.22 µM | 0.12 ± 0.02 µM | fold higher α-glucosidase inhibitory activity than 5a [1]: four-fold; glucose consumption (HepG2 cells; 0.04 μM): significantly promote glucose consumption; glucose consumption (HepG2 cells; 0.2 μM, metformin 1 mM positive control): significantly promote glucose consumption; also recorded: comparable to that of metformin; type of α-glucosidase inhibition (α-glucosidase; Lineweaver-Burk plot, 0, 0.2, 0.5 μM): mixed competitive α-glucosidase inhibitor; also recorded: mixed competitive inhibitory mode; reversibility of α-glucosidase inhibition (α-glucosidase): irreversibly; also recorded: irreversible α-glucosidase inhibitors
CC(C)=CCc1c(O)cc(O)c(C(=O)/C=C/c2ccc(O)cc2)c1O [Compound 1, Desmethylxanthohumol, reference compound] | 22.4 ± 3.1 µM | > 50 µM | – | –
CC1(C)C=Cc2c(O)cc(O)c(C(=O)/C=C/c3ccc(O)cc3)c2O1 [Compound 2, dehydrocyclodesmethylxanthohumol, reference compound] | 9.74 ± 0.73 µM | > 50 µM | – | –
CC(=O)c1c(O)c(Cc2c(O)c3c(c(C(C)=O)c2O)OC(C)(C)C=C3)c(O)c2c1OC(C)(C)C=C2 [Compound 9, 1,1’-(Methylenebis(5,7-dihydroxy-2,2-dimethyl-2H-chromene-6,8-diyl))bis (ethan-1-one)] | 7.11 ± 0.05 µM | > 50 µM | – | –
COc1c2c(c(C(=O)/C=C\c3ccccc3)c(O)c1Cc1c(O)c(C(=O)/C=C\c3ccccc3)c3c(c1OC)C=CC(C)(C)O3)OC(C)(C)C=C2 [Compound 12, (2Z,2’Z)-1,1’-(Methylenebis(7-hydroxy-5-methoxy-2,2-dimethyl-2H-chromene-6,8-diyl))bis(3-phenylprop-2-en-1-one)] | – | > 50 µM | 3.39 ± 0.13 µM | –
COc1c2c(c(C(=O)/C=C\c3ccccc3)c(O)c1Cc1c(OC)c3c(c(C(=O)/C=C\c4ccccc4)c1OC)OC(C)(C)C=C3)OC(C)(C)C=C2 [Compound 13, (Z)-1-(6-((5,7-Dimethoxy-2,2-dimethyl-8-((Z)-3-phenylacryloyl)-2H-chromen-6-yl)methyl)-7-hydroxy-5-methoxy-2,2-dimethyl-2H-chromen-8-yl)-3-phenylprop-2-en-1-one] | – | > 50 µM | 0.37 ± 0.04 µM | fold enhancement of α-glucosidase inhibitory activity compared to 12 ([1]; compared with compound 12): 10 fold
(2Z,2’Z)-1,1’-(Methylenebis(5,7-dihydroxy-2,2-dimethyl-2H-chromene-6,8-diyl))bis (3-(furan-3-yl)prop-2-en-1-one) [Compound 4c] | 1.84 ± 0.41 µM | 21.48 ± 0.09 µM | – | fold higher α-glucosidase inhibitory activity than 3 [1]: three-fold
